The assay relates to left ventricular pressure-loaded model mice (TAC mice). In words: Echocardiography in transverse aortic constriction (TAC) left ventricular pressure-loaded model mice. It counts as in vivo, C57BL/6 mice. The method, then:
Ten-week-old male C57BL/6 mice (about 25 g) were treated with transverse aortic constriction (TAC) to produce left ventricular pressure-loaded model mice (TAC mice). At 2 weeks after TAC (hypertrophic phase), an osmotic mini-pump (Alzet2006) was implanted subcutaneously, and continuous subcutaneous administration of Compound 011 or a vehicle (a solution obtained by mixing dimethyl sulfoxide and polyethylene glycol 300 in a weight ratio of 1:1) was started at a dose of 5 mg/kg/day. The left ventricular wall thickness (IVS), left ventricular end-diastolic diameter (LVDd), left ventricular fractional shortening (LVFS), and left ventricular ejection fraction (LVEF) were observed and evaluated by echocardiography every two weeks after the start of administration (Compound 011 group: 11 animals; vehicle group: 9 animals). In advance, Compound 011 was administered to non-TAC-treated mice at 5 mg/kg/day with an osmotic mini-pump (Alzet2006) in the same manner, and the blood level (tail vein blood sample) was measured at 2, 4, and 6 weeks after administration and the body blood pressure was measured at 2 weeks after administration to thus confirm that the dose of 5 mg/kg/day could be used for TAC mice.

Setting [1] is: 8 weeks after TAC (6 weeks after start of administration), 5 mg/kg/day continuous subcutaneous by osmotic mini-pump, p<0.05 vs. vehicle.
Setting [2] is: 8 weeks after TAC, 5 mg/kg/day continuous subcutaneous.

As for `O=C(O)c1cnc(N2CCN(c3noc4cccc(C(F)(F)F)c34)CC2)c(Cl)c1` [Compound 011, 5-Chloro-6-(4-(4-(trifluoromethyl)benzo[d]isoxazol-3-yl)piperazin-1-yl)nicotinic acid], the “progressive deterioration of LVFS and LVEF” value (5 mg/kg/day continuous subcutaneous, vs. vehicle group) is listed as “significantly suppressed”. In addition, under setting [1], the “LVEF (left ventricular ejection fraction)” value came out at 80.2±2.7% and the “left ventricular fractional shortening (LVFS) at 8 weeks after TAC” value was 48.8±2.6%. For the same molecule, under setting [2], the “interventricular septum (IVS), difference vs. vehicle group” value is reported as “no significant difference” and the “left ventricular end-diastolic diameter (LVDd), difference vs. vehicle group” value is recorded as “no significant difference”.

The record behind these values is patent US20250073229A1, “PHARMACEUTICAL COMPOSITION FOR PREVENTING AND/OR TREATING HEART FAILURE” (OSAKA UNIVERSITY, priority 2022, published 2025).
